Where “and” joins values, the source holds several entries; their conditions need not be identical. Identical values can stand only once.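 Protocol summary: plate cells (96-well), add compound at 5 concentrations, incubate 48 h, interpolate endpoints linearly. GI50: concentration for 50% inhibition of growth. TGI denotes the concentration required for complete inhibition of growth.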
Columns and labels:
Assay in all cases: NCI anticancer screen, dose series, 48 h
[1] = test system: TK-10 renal
[2] = test system: SK-OV-3 ovarian
[3] = test system: SR leukemia
[4] = test system: NCI-H460 lung
[5] = test system: SK-MEL-2 melanoma
[6] = test system: HT29 colon
[7] = test system: RXF 393 renal
[8] = test system: HS 578T breast
[9] = test system: A549 NSCLC
[10] = test system: SK-MEL-28 melanoma

Structure (SMILES) | GI50 [1] | TGI [1] | GI50 [2] | TGI [2] [µM] | GI50 [3] [µM] | TGI [3] [µM] | GI50 [4] [µM] | TGI [4] [µM] | GI50 [5] | TGI [5] | GI50 [6] | TGI [6] | GI50 [7] [µM] | TGI [7] [µM] | GI50 [8] | TGI [8] | GI50 [9] | TGI [9] [µM] | GI50 [10] [µM] | TGI [10] [µM]
CCCCc1nc2cc(/C=C/C(=O)NO)ccc2n1CCN(CC)CC | 0.116 µM | 0.598 µM | 0.241 µM | 0.88 | 0.605 | > 100 | 0.312 | > 100 | 0.153 µM | 0.506 µM | 0.198 µM | 0.762 µM | 0.178 | 0.789 | 0.515 µM | 33 µM | 0.318 µM | 2.4 | 0.254 | 1.58
C=CCNc1cccc2c1C(=O)c1ccccc1C2(O)CC=C (centres undefined) | 25.2 µM | 57.8 µM | – | – | 36.8 | > 100 | 56 | > 100 | 20.7 µM | 47.6 µM | 16.8 µM | 36.7 µM | – | – | 18.8 µM | 43.5 µM | 23.7 µM | 69 | 27 | 93.3
COc1ccc2sc3c(NCCCNCCO)nc4ccccc4c3c(=O)c2c1 | 1.83 µM | 3.38 µM | – | – | 1.97 | 5.61 | 1.51 | 2.96 | 2.08 µM | 4.07 µM | 1.57 µM | 3.03 µM | 1.31 | 2.7 | 1.42 µM | 3.48 µM | 1.68 µM | 3.31 | 1.8 | 3.27
COC(=O)[C@]12CC[C@@H](C)[C@H](C)[C@@H]1C1=CC[C@@H]3[C@@]4(C)C=C(O)C(=O)C(C)=C4CC[C@@]3(C)[C@]1(C)CC2 | 18.2 µM | 35.8 µM | 15.6 µM | 38.4 | 5.29 | 28.2 | 18.9 | 37.3 | 14.6 µM | 31.6 µM | 9.35 µM | 23 µM | 12.1 | 27.9 | 22.2 µM | 57.1 µM | 15.1 µM | 31.2 | 15.8 | 34
CC(=O)OC1=C2C(CC3C4CC=C5CC(OC(C)=O)CCC5(C)C4CCC23C)C2C(=O)N(Cc3ccccc3)C(=O)C2C1 (centres undefined) | 47.4 µM | > 100 µM | 17.7 µM | > 100 | 3.62 | 16.6 | 3.73 | 31.1 | – | – | 3.9 µM | 24 µM | 4.34 | 45.3 | 15.7 µM | > 100 µM | 4.33 µM | 34 | 28.9 | > 100
C#CC#CC#CC#CC#CC#CC#CC#CCC1OC[C@H](COC(=O)O[C@@H](C(=O)O[C@H]2C[C@@]3(O)[C@@H](OC(=O)c4ccccc4)[C@@H]4[C@]5(OC(C)=O)CO[C@@H]5C[C@H](O)[C@@]4(C)C(=O)[C@H](OC(C)=O)C(=C2C)C3(C)C)[C@@H](NC(=O)c2ccccc2)c2ccccc2)O1 (some centres undefined) | > 21.5 µM | > 33.3 µM | 1.38 µM | > 33.3 | 0.182 | > 33.3 | 0.123 | > 33.3 | 1.56 µM | > 33.3 µM | 0.114 µM | > 33.3 µM | 1.25 | > 15.3 | 0.297 µM | > 17.3 µM | 0.295 µM | > 33.3 | – | –
COc1ccc(-c2[nH]ncc2-c2cc(OC)c(OC)c(OC)c2)cc1 | – | – | < 0.01 µM | 20.5 | < 0.01 | 19.5 | < 0.01 | 1.3 | < 0.01 µM | 0.517 µM | < 0.01 µM | 0.0326 µM | < 0.01 | 17.8 | < 0.01 µM | 7.24 µM | < 0.01 µM | > 38 | < 0.0185 | 33.6
COc1cc2c3c(n(CCCNCCN4CCOCC4)c(=O)c2cc1OC)-c1cc2c(cc1C3=O)OCO2 | 7.2 µM and 7.5 µM | 14.8 µM and 23.5 µM | 4.68 µM and 1.27 µM | – | < 0.005 | – | – | – | 7.78 µM and 3.92 µM | 14.7 µM and 19.7 µM | 2.2 µM and 1.78 µM | 50 µM and > 100 µM | – | – | 2.94 µM and 16.9 µM | 13.3 µM and 48 µM | 0.182 µM and 1.37 µM | 5.42 | – | –
COc1cccc(C2C(C#N)=C(N)Oc3cc(OC)ccc32)c1 (centres undefined) | 11.8 µM | 74.1 µM | 0.0478 µM | – | 0.0256 | > 33.8 | 0.0353 | 3.64 | – | – | 0.0416 µM | 4.96 µM | 0.026 | 81.1 | 0.0279 µM | 10.3 µM | 0.0496 µM | > 100 | 0.0577 | > 100
C=C(C(=O)OC)[C@@H]1C[C@@H](O)[C@]2(C)CC/C=C(\C)CCC[C@H](C)[C@H](O)C1O2 | 19.6 µM | 48.8 µM | > 100 µM | > 100 | – | – | 75.5 | > 100 | 48.5 µM | > 100 µM | 53 µM | > 100 µM | 53.3 | > 100 | 32.8 µM | > 100 µM | 61.3 µM | > 100 | > 100 | > 100
c1ccc2c(c1)ccc1c3ccccc3ccc21 | > 50 µM | > 50 µM | > 50 µM | > 50 | – | – | > 50 | > 50 | > 50 µM | > 50 µM | > 50 µM | > 50 µM | > 50 | > 50 | > 50 µM | > 50 µM | > 50 µM | > 50 | > 50 | > 50
O=C(Nc1ccccc1F)c1ccc(NC2=C(Cl)C(=O)N(Cc3ccccc3)C2=O)cc1 | – | – | 17.6 µM | 31.4 | 0.66 | 2.46 | 6.6 | 19.3 | 6.84 µM | 18.4 µM | 4.18 µM | 13.5 µM | 5.09 | 16.6 | 2.95 µM | 9.4 µM | 13.5 µM | 26.3 | 3.88 | 13.5
C=C1C(=O)O[C@H]2[C@H]1CC/C(COC(=O)C(=O)c1cn(C)c3ccc(OC)cc13)=C\CC[C@@]1(C)O[C@@H]21 | 4.79 µM | 13.2 µM | 13.6 µM | 29.3 | 2.34 | 42.5 | 7.2 | 14.4 | – | – | 2.23 µM | 5.4 µM | 2.02 | 3.95 | 11.3 µM | 50.4 µM | 7.61 µM | 14.2 | 3.14 | 8.49

Reference: PubChem BioAssay (NCI)
